Experimental data as given in ChEMBL document CHEMBL1128914, “Suppression of morphine and cocaine self-administration in rats by a mixed mu antagonist-kappa agonist (N-CBM-TAMO) and a long-acting selective D1 antagonist (AS-300)” (Bioorg Med Chem Lett, 1996).
pIC50: −log10 of the molar value.

Legend:
Mus musculus = assay: Compound was tested for its activity using mouse writhing assay after icv administration.; assay type: functional
Mu-type opioid receptor = Mu-type opioid receptor (Bos taurus, UniProt P79350); assay: Compound was tested for binding activity against mu opioid receptor in bovine striatal membranes using 0.25 nM [3H]DAMGO as the radioligand.; assay type: cell membranes, Striatum, Membrane
D(2) dopamine receptor = D(2) dopamine receptor (Rattus norvegicus, UniProt P61169); assay: Compound was tested for binding affinity against Dopamine receptor D2 using 10 nM [3H]N-methyl-spiperone as the radioligand.
D(1A) dopamine receptor = D(1A) dopamine receptor (Rattus norvegicus, UniProt P18901); assay: Compound was tested for binding affinity against Dopamine receptor D1 using 1 nM [3H]SCH-23390 as the radioligand.
Sequence of D(1A) dopamine receptor (P18901 whole entry): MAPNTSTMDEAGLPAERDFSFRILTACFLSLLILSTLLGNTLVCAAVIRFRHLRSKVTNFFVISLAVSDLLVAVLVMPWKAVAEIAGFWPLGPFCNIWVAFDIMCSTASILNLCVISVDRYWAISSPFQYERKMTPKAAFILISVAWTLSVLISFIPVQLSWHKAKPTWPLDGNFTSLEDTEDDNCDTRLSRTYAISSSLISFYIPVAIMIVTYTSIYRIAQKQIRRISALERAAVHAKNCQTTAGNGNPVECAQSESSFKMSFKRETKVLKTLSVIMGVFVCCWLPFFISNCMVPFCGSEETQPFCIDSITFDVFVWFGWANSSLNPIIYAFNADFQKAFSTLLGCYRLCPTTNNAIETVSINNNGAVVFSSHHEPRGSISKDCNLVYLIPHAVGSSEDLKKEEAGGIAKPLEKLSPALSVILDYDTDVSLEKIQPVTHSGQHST

Sequence of D(2) dopamine receptor (P61169 whole entry): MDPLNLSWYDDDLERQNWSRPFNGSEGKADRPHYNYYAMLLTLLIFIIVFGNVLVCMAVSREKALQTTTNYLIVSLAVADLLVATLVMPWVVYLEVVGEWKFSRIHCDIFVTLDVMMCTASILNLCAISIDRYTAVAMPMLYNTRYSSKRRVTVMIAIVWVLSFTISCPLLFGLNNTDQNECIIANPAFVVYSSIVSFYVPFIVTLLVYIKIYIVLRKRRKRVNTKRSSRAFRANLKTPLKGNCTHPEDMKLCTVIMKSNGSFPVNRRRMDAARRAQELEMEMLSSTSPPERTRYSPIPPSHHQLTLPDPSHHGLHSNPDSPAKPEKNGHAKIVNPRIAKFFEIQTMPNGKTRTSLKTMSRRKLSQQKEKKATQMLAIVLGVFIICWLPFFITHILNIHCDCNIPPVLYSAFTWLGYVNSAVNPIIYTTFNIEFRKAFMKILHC
Sequence of Mu-type opioid receptor (P79350 whole entry): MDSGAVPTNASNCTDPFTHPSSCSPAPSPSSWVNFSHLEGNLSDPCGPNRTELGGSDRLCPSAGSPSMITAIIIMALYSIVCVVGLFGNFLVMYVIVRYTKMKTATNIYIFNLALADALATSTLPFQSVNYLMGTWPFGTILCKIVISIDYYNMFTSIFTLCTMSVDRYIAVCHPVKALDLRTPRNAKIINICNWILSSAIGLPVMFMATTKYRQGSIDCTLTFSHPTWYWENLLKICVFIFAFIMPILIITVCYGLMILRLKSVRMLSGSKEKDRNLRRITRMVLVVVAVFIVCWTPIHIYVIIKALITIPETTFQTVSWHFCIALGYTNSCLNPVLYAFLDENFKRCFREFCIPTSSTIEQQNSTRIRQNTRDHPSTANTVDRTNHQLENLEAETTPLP

| pIC50 (D(2) dopamine receptor) | pIC50 (D(1A) dopamine receptor) | Structure (SMILES) | D50 (Mus musculus) | pIC50 (Mu-type opioid receptor) |
| --- | --- | --- | --- | --- |
|  |  | O=C(CSSCC(=O)N[C@@]12CCC(=O)[C@@H]3Oc4c(O)ccc5c4[C@@]31CCN(CC1CCC1)[C@@H]2C5)N[C@@]12CCC(=O)[C@@H]3Oc4c(O)ccc5c4[C@@]31CCN(CC1CCC1)[C@@H]2C5 | 0.08 nM | 8.71 |
| 6.01 | 8.67 | CN1CCc2cc(Cl)c(O)cc2C(c2cccc(N=C=S)c2)C1 (centres undefined) |  |  |
